Experimental data published in patent US9387216B2, “Biomarkers for treatment of neoplastic disorders using androgen-targeted therapies” (Tokai Pharmaceuticals, Inc., priority 2013, dated 2016).
Where two headings read alike, the source gives them in different places.

Tests used:
CWR22rv1 cell line = test: Cell proliferation in CWR22rv1 cell line; format: cell-based
CYP17 lyase = target: T1, CYP17 lyase (Homo sapiens, UniProt P05093); conditions: steroidogenic pathway; cited from earlier work
T1 sequence (P05093 1-508): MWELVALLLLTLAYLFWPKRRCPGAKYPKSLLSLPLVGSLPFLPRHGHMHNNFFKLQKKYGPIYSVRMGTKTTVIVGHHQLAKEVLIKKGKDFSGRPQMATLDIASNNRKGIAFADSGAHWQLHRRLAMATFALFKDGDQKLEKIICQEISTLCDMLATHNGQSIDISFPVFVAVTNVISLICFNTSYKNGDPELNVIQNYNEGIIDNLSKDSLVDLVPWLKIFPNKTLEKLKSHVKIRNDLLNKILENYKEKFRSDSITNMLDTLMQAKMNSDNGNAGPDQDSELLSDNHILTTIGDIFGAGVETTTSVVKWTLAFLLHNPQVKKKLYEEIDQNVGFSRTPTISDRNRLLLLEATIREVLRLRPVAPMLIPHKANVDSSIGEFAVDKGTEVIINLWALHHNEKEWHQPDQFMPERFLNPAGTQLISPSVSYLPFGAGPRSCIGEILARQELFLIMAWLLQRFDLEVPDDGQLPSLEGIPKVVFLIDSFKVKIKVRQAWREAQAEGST

[1] = tested on: AR and prostate-specific antigen (PSA) protein expression; test: AR and PSA protein expression (western blot) in LNCaP and Enzalutamide resistant cells; format: cell-based
[2] = tested on: AR-dependent gene expression; test: AR-dependent gene expression in cells with wild-type AR and AR point mutations; format: cell-based
Text: These cells also express AR receptors with F876L mutation.

AR nuclear translocation = AR nuclear translocation by immunocytochemistry / immunofluorescence; format: cell-based
full-length AR and AR-V7 = target: T2, full-length AR and AR-V7 (Homo sapiens, UniProt P10275, H875Y); format: cell-based
T2 construct: CWR22rv1 cell line which constitutively expresses both AR and AR-V7; endogenous in cells; host or cells: CWR22rv1
T2 sequence (P10275 1-920 H875Y): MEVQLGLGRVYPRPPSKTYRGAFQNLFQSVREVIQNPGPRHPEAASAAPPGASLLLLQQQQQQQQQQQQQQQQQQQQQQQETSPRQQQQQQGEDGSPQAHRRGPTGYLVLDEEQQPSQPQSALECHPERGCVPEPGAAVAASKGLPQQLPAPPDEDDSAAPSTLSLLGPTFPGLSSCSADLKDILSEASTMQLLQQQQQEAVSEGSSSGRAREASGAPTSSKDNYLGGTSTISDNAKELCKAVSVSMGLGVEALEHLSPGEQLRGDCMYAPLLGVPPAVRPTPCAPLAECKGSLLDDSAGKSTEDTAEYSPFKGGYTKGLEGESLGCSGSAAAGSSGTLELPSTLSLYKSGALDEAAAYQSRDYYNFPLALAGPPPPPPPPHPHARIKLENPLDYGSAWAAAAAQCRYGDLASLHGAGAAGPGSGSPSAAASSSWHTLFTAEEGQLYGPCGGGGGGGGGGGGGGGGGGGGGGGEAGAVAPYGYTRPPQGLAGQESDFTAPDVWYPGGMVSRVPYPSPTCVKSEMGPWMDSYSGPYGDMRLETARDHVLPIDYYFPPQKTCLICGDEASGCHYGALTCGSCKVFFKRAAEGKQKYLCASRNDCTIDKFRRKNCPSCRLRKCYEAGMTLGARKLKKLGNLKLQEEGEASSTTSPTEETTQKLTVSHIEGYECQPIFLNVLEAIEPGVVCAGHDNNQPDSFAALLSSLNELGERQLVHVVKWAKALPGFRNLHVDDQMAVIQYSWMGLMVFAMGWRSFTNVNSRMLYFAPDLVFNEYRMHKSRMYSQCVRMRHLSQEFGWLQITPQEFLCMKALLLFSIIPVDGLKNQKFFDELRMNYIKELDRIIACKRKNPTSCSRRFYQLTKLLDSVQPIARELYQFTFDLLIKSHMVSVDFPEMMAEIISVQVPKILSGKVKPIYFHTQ
Procedure: An experiment to detect expression of full-length AR and AR-V7 variant proteins was conducted in a CWR22rv1 cell line which constitutively expresses both AR and AR-V7. […] See also FIG. 4.

PSA levels = test: PSA response of CRPC patients by AR C-terminal status; format: in vivo, human; conditions: for maximal reductions in PSA levels: patients with AR C-terminal loss
Procedure: A group of six patients naive to previous CRPC therapy was analyzed with respect to AR status. Four of the six patients were identified as having AR receptors with a C-terminal loss as determined by the evaluation of C-terminal androgen receptor expression in relation to N-terminal androgen receptor expression. All four of the patients having this AR variant had maximal reductions in PSA levels of at least 50%.

[3] = tested on: LNCaP cells, CRPC cells, Enzalutamide resistant cell lines 49F and 49C; test: Crystal violet and MTT proliferation/viability assays in LNCaP, CRPC and Enzalutamide resistant (49C, 49F) cells; format: cell-based
[4] = tested on: LuCaP136 castration resistant xenograft tumors which express AR-V7; test: Xenograft model of CRPC in mice (LuCaP136); format: in vivo
Procedure: Galeterone was tested in a xenograft model of CRPC in mice. […] AR-V7 was detected in LuCaP136 castration resistant xenograft tumors using RT-PCR.

AR activity = test: AR luciferase assay; format: cell-based
[5] = cited from earlier work
[6] = enzalutamide-responsive CPRC cell line
[7] = patients expressing AR-V7 mRNA in circulating tumor cells

## C[C@]12CC[C@H](O)CC1=CC[C@@H]1[C@@H]2CC[C@]2(C)C(n3cnc4ccccc43)=CC[C@@H]12 [Galeterone, 3-β-Hydroxyl 17-(1H-benzimidazol-1-yl)androsta-5,16-diene]
CWR22rv1 cell line
  cell proliferation: reduces cell proliferation
CYP17 lyase
  inhibition of CYP17 lyase: potent inhibitor
[1]; Enzalutamide resistant cell line
  AR and PSA protein expression levels: still observed in resistant cells
[1]; LNCaP cells
  AR and PSA protein expression levels: induced a greater reduction in AR and prostate-specific antigen (PSA) protein expression
[2]
  AR-dependent gene expression: reduces AR-dependent gene expression
AR nuclear translocation; cytoplasmic vs nuclear green staining vs. control
  AR nuclear translocation (immunofluorescence, FIG. 15B): reduces AR nuclear translocation
full-length AR and AR-V7
  abiraterone and enzalutamide resistance due to AR splice variants: successfully overcomes abiraterone and enzalutamide resistance due to AR splice variants
PSA levels; 12 weeks at 2550 mg daily
  maximal reductions in PSA levels: at least 50%
PSA levels; 12 weeks at 2550 mg daily, listed as galeterone
  maximal reductions in PSA levels: > 50%
PSA levels; patients with C-terminal AR loss
  patients with maximal PSA response: 4/4
PSA levels; two patients without loss of the AR C-terminal domain, 12 weeks at 2550 mg daily
  reduction in PSA: did not respond as strongly
[3]; crystal violet and MTT assays, LNCaP cells, CRPC cells, Enzalutamide resistant cells
  anti-proliferative effects: had anti-proliferative effects
[3]; summary of the data
  castration-resistant LNCaP growth and enzalutamide-resistant cell growth in vitro: suppresses castration-resistant LNCaP growth as well as enzalutamide-resistant cell growth
[4]
  response of castration resistant tumors which express AR-V7: respond
AR activity; Enzalutamide resistant cell lines 49C and 49F
  AR activity (luciferase): reduced AR activity in all three cell lines
AR activity; [6]
  AR activity (luciferase): reduced AR activity in all three cell lines
AR activity; summary of the data
  AR activity (summary): strongly inhibits AR activity

## C[C@]1(O)CC[C@H]2[C@@H]3CCC4=CC(=O)CCC4=C3C=C[C@@]21C [Compound R1881, reference compound]
AR nuclear translocation
  AR translocation to the nucleus: caused robust AR translocation to the nucleus

## CNC(=O)c1ccc(N2C(=S)N(c3ccc(C#N)c(C(F)(F)F)c3)C(=O)C2(C)C)cc1F [Enzalutamide, reference compound]
[1]; LNCaP cells
  AR and PSA protein expression levels: reduced AR and PSA protein expression levels
[5]; AR-V7 negative patients
  patients for which PSA levels dropped by 50%: 53%
  time to progression: 6.1 months
[5]; [7]
  PSA decline: no PSA decline
  time to progression: 2.1 months
AR activity; [6]
  AR activity (luciferase): reduced AR activity
